Assay results published in patent US7189859B2, “Radiolabelled phenylethyl imidazole carboxylic acid ester derivatives” (priority 2003, dated 2007).
Where two headings read alike, the source gives them in different places.

Experiments:
[1] = target: T1, cytochrome P-45011β enzyme system (Rattus norvegicus, UniProt P15393); test: Displacement of [^131I]MTO binding
T1 construct: Whole adrenals from adult male Wistar rats were homogenized; from tissue; host or cells: whole adrenals of adult male Wistar rats, washed membrane pellet
T1 sequence (P15393 25-499): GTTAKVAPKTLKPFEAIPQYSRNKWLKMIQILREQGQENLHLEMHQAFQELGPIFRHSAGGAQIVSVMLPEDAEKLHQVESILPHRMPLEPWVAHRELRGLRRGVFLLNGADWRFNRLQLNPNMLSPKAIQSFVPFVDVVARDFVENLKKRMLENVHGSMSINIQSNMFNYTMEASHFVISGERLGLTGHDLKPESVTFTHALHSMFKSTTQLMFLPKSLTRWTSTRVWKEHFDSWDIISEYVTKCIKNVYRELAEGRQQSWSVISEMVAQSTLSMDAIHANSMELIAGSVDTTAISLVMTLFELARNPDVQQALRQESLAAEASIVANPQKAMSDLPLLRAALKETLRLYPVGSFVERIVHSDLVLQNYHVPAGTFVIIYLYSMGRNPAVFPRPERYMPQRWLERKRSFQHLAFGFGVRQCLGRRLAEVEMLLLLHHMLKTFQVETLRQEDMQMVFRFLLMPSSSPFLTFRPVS
Protocol: Test compounds were incubated at 0.01–100 nM concentrations. Non-specific binding was determined with etomidate (10 μM). […] The filters containing membranes with bound radioligand were measured in a gamma-spectrometer.
IC50 values (the molar concentration of compound necessary to inhibit binding by 50%) were determined for each test compound by non-linear, least squares regression analysis, using an iterative curve fitting routine.

adrenals = test: In vivo evaluation of ^131I-MTO (organ distribution after tail vein injection); conditions: rats
Protocol: Method: ^131I-MTO was used with a radiochemical purity >99% and a specific activity of 57 GBq/μmol. The radiotracer (0.5–1.1 MBq; […]) was injected into the tail vein of rats (female, 180–220 gram). Groups of four rats were sacrifized at specified times up to 24 hours post injection. The organs were excised and weighed, the radioactivity was measured at constant geometry using a gamma-spectrometer with a Nal(TI)-crystal. The data were expressed as percent of injected dose (ID) per organ and as percent of ID per gram tissue.

[2] = target: T2, rat adrenal membranes (cytochrome P-450 β-hydroxylase) (Rattus norvegicus, UniProt P15393); test: [^131I]MTO binding to rat adrenal membranes (association, dissociation, saturation); conditions: for observable association rate constant v: data pooled from 7 experiments
T2 sequence (P15393 25-499): T1 sequence (P15393 25-499)
Protocol: Whole adrenals from adult male Wistar rats were homogenized in 10 mM K2HPO4/10 mM HEPES (pH 7.1) with a glass/teflon piston (Potter-type). The homogenate was centrifuged at 35.000×g for 10 min, the pellet was resuspended in fresh buffer and centrifuged again. Membranes were washed 2 more times and stored as aliquots at −80° C.
After incubation, membranes with bound radioligand were isolated by filtration through Whatman GF/B glass fiber filters (presoaked in buffer), followed by 2×4 mL washings with buffer, then filters were measured in a gamma-spectrometer.
For dissociation experiments, membranes were fully equilibrated with 2 nM radioligand, and the dissociation was initiated by the addition of excess unlabelled 4-iodo-MTO and stepwise filtration at 15 sec intervals.
For saturation studies 2–100 nM 4-iodo-MTO carrier was used. See summary in FIG. 1. […] Incubation for 30 minutes using 10 mM K2HPO4/10 mM HEPES, 150 mM NaCl (pH 7.1).

[3] = tested on: steroid 11β-hydroxylation; conditions: human adrenocortical tissue slices; cited from earlier work
[4] = tested on: lesions of adrenocortical origin; conditions: clinical; cited from earlier work
[5] = read-out: IC50 (inhibition of [^131I]MTO binding), rat adrenal membranes

SMILES: CC(C)(C(=O)c1cccnc1)c1cccnc1 [Metyrapone]
- IC50 [1]: 1200 nM

SMILES: COC(=O)c1cncn1[C@H](C)c1ccc([131I])cc1 [[^131I]MTO, (R)-3-[1-(4-[^131I]iodophenyl)ethyl]-3H-imidazole-4-carboxylic acid methyl ester]
- duration of radioactivity plateau in the adrenals (adrenals; intravenous (tail vein)): 2 h
- route of elimination (adrenals; intravenous (tail vein)): eliminated both by hepatobiliary and by renal excretion
- specific uptake in the adrenals (adrenals; intravenous (tail vein)): approximately 10 % ID/g tissue
- time post injection up to which renal activity is increasing (adrenals; renal activity attributed to ^131I-ETO-acid): up to 4 hours
- observable association rate constant v ([2]; ligand concentration 2 nM 4-iodo-MTO): 0.65 min⁻¹
- observable association rate constant v ([2]; ligand concentration 4 nM 4-iodo-MTO): 1.23 min⁻¹
- observable association rate constant v ([2]; ligand concentration 11 nM 4-iodo-MTO): 1.34 min⁻¹

SMILES: C[C@H](c1ccccc1)n1cncc1C(=O)OCCF [FETO]
- IC50 [1, 5]: 3 nM

SMILES: CC(c1ccccc1)n1cncc1C(=O)O (stereo not drawn) [ETO-acid]
- IC50 [1, 5]: 123000 nM

SMILES: COC(=O)c1cncn1[C@H](C)c1ccc(I)cc1 [[^131I]MTO, (R)-3-[1-(4-[^131I]iodophenyl)ethyl]-3H-imidazole-4-carboxylic acid methyl ester]
- Kd ([2]; saturation analysis, 2–100 nM 4-iodo-MTO carrier, 30 minutes incubation, pH 7.1, (15)): 7.4 ± 2.8 nM

SMILES: COC(=O)c1cncn1C(C)c1ccccc1 (stereo not drawn) [metomidate]
- inhibition of steroid 11β-hydroxylation [3]: equally potent inhibitor
- IC50 [1]: 3.7 nM

SMILES: COC(=O)c1cncn1C(C)c1ccccc1 (stereo not drawn) [[O-methyl-^11C]metomidate]
- uptake in lesions of adrenocortical origin, including adenomas [4]: high uptake
- uptake in lesions of non-adrenocortical origin [4]: very low uptake

SMILES: COC(=O)c1cncn1[C@H](C)c1ccc(I)cc1 [Example 4-iodo-MTO, (R)-methyl 3-[1-(4-iodophenyl)ethyl]-3H-imidazole-4-carboxylate]
- IC50 [1]: 9 nM

SMILES: CCOC(=O)c1cncn1[C@H](C)c1ccccc1 [etomidate]
- inhibition of steroid 11β-hydroxylation [3]: block the conversion of 11-deoxycortisol to cortisol and of 11-deoxycorticosterone (DOC) to corticosterone and aldosterone
- IC50 [1]: 1.1 nM
